Results on 1 molecule are retold here after patent US7256211B1, “8-azaprostaglandin derivatives and medical use thereof” (ONO Pharmaceutical Co., Ltd., priority 2003, dated 2007).

Molecules are shown by their SMILES.

This experiment has as its target T1, EP4 receptor (Mus musculus, UniProt P32240).
T1 construct: expressed in transfected cells; host or cells: CHO cells (membrane fraction)
Nature of the experiment: Receptor-binding experiment using CHO cell membranes expressing prostanoid receptor sub-types (3H-PGE2 displacement). The settings on record: membrane fraction of CHO cells expressing murine EP4; 3H-PGE2 2.5 nM; Ki=IC50/(1+([C]/Kd)). On the procedure:
(i) Experiment for Receptor-Binding Using Cells which Express Prostanoid Receptor Sub-Types
According to the method of Sugimoto et al. (J. Biol. Chem., 267, 6463–6466 ([…])), CHO cells which expressed prostanoid receptor sub-types (murine EP1, EP2, EP3α, and EP4 respectively) were prepared and used as membrane authentic samples.
A reaction solution (200 μL) containing the prepared membrane fraction (0.5 mg/ml) and ^3H-PGE2 was incubated at room temperature for an hour. The reaction was terminated with ice cold buffer (3 mL), and the reaction mixture was suction filtrated under reduced pressure through a glass filter (GF/B), on which the binding ^3H-PGE2 was trapped, and the binding radioactivity was measured by means of a liquid scintillator.
The Kd value was obtained from the Scatchard plots (Ann. N.Y. Acad. Sci., 51, 660 (1949)). Non-specific binding was obtained as the binding in the presence of an excess amount (2.5 μM) of unlabelled PGE2. Measurement of the binding inhibition for ^3H-PGE2 with the compounds of the invention was performed by adding ^3H-PGE2 (2.5 nM) and a series of concentrations of the compounds of the invention. In this reaction, the following buffer was used in all cases. • Buffer: 10 mM potassium phosphate (pH6.0), 1 mM EDTA, 10 mM MgCl2 and 0.1M NaCl.
Dissociation constant Ki (μM) of each compounds was calculated from the following equation. […]

The Ki is a dissociation constant, usually derived from enzyme kinetics or from competition with a known ligand. Lower therefore signals a stronger hold on the target.

T1 sequence (P32240 whole entry): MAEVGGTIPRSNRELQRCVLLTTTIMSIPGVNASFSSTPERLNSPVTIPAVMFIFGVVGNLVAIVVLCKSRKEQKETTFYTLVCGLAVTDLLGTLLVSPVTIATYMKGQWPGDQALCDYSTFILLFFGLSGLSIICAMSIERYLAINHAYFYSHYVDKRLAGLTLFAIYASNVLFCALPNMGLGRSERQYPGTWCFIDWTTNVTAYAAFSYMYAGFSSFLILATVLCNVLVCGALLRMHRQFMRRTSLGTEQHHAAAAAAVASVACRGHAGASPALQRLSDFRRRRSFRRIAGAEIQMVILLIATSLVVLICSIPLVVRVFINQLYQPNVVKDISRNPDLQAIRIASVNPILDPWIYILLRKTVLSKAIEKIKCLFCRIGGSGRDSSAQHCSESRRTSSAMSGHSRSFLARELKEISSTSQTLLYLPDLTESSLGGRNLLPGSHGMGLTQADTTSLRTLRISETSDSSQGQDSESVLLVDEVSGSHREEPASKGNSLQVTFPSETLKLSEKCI

As for `Cc1cc(C)cc(C[C@H](O)/C=C/[C@H]2CCC(=O)N2CCc2ccc(C(=O)O)cc2)c1` [Example 5, (15α,13E)-1,6-(1,4-interphenylene)-9-oxo-15-hydroxy-16-(3,5-dimethylphenyl)-2,3,4,5,17,18,19,20-octanol-8-azaprost-13-enoic acid], the Ki worked out at 6.4 nM.
